Values quoted from earlier work as cited in patent publication US20110305654A1, “ANHYDROUS PETROLEUM JELLY/ELASTOMER-FREE DEPIGMENTING COMPOSITIONS COMPRISING A SOLUBILIZED PHENOLIC COMPOUND” (Galderma Research & Development, priority 2008, published 2011).
Where two headings read alike, the source gives them in different places.

Oc1ccc(O)cc1 [hydroquinone]
Irritation (10% concentrations): relatively high | Irritation (concentration of 2%): virtually nonexistent | Irritation (preparations with a 5% dose): reduces greatly
